Experimental data from US10690683B2, “Methods of use for intermediate filament protein probes” (University of Connecticut, priority 2016, dated 2020).

Columns and labels:
[1] = system: BHK-21 cells (mitochondrial movements); assay: Nocodazole treatment, time-lapse live imaging of BHK-21 cells with MitoTracker dye and WFA-Verde; assay type: cell-based, hamster; settings: 10 μM Nocodazole
Description: BHK-21 cells were cultured in glass bottom plates and treated with MitoTracker® dye alone or separately with 10 μM Nocodazole. […] Time-lapse images were collected every 5 seconds in each of the four treatment groups.

vimentin and GFAP = settings: laser injured mice, day 7, 1 μM intraperitoneal, sacrificed 24 h later
Description: Mice of both sexes were anesthetized and subjected to 4 equally spaced laser burns focused on the retinal pigment epithelium (RPE). Using the Meridian laser attached to Micron III retinal fundus microscope (Phoenix Research labs) we used strong injury (150 mW with 50 msec pulse) to promote retinal gliosis with CNV.
The mouse imaging system (Micron III, Phoenix Research Labs, CA) provided with an image-guided Meridian Merilas 532 nm (Nd:YVO) laser was employed. Using the Diode laser 625-645 nm as an aiming beam the continuous wave, KTP frequency doubled Nd:YVO 532 nm laser was employed to deliver laser injuries in anesthetized mice. Here four (150 mW; 10-μm diameter, 50 msec duration) laser shots equally spaced around the optic nerve were delivered to disrupt the RPE. […] Mice were sacrificed 24 h later and eyes enucleated for tissue sectioning and antibody staining to vimentin and GFAP.

[2] = system: vimentin (p-Ser38Vimentin)
Excerpt: Cells were fixed, permeabilized, and prepared for immunohystochemistry (IHC) analysis.

[3] = system: mCherry-vimentin (soluble vimentin); assay: Live cell target detection in BHK-21 cells transfected with pmCherry-vimentin-N-18; assay type: cell-based, hamster; settings: 250 nM, 5 min, early spreading cells
Excerpt: Soluble vimentin is a broad definition for the biochemical properties of vimentin forms that are extracted in low salt buffers (composed of tetramers, short oligomers, unit length filaments etc.). As such, these soluble vimentin forms are more dynamic structures. We employed a genetic approach to introduce a hybrid mCherry-vimentin construct to express vimentin as a fusion protein with the red fluorescent protein mCherry.
BHK-21 cells were transiently transfected with pmCherry-vimentin-N-18 plasmid (Adgene, MA) using lipofectamine, according to vendor instructions. Cells were trypsinized and replated in glass bottom culture plates (MatTek, MA) for 1 h in complete DMEM medium. […] Cells were immediately imaged live by epifluorescence microscopy, without fixation. […] Asterisks mark the position of the nucleus.

soluble vimentin = target: T1, soluble vimentin (Mesocricetus auratus, UniProt P02544); assay: Dynamic movement of vimentin structures, live imaging of BHK-21 cells; assay type: cell-based, hamster; settings: 250 nM, 5 min, SF medium, images at 5 sec intervals
T1 construct: BHK-21 cells were plated in glass bottom culture plates for 18 h to promote spreading; endogenous in cells; host or cells: BHK-21

[4] = target: vimentin in corneal myofibroblasts (Mus musculus, UniProt P20152)
Description: Alkali injury to the cornea causes blindness due to the development of corneal fibrosis from overexpression of IF proteins in resident myofibroblasts. This model is extensively employed to investigate corneal fibrosis and role of IF proteins.
Thus, anesthetized mice were injured with alkali by application of 0.15N NaOH for 1 min to the cornea, eyes was extensively and the corneal epithelium gently removed. During the process of wound healing the resident keratocytes become activated into wound fibroblasts and subsequently into myofibroblasts to overexpress both vimentin and desmin, the two type III IFs in the cornea. Thus, heightened expression of these IF targets compared to uninjured corneas, the latter expressing very low levels of vimentin and no desmin, provided the rationale to compare uninjured mice. […] Mice were sacrificed after 1 h, eyes enucleated and cryosections were obtained.

[5] = target: T2, vimentin (Muller glial filaments) (Mus musculus, UniProt P20152); assay: In vivo delivery of probe to non injured mice, retina cryosections; settings: 1 μM intraperitoneal, eyes enucleated after 24 h, FITC channel
T2 construct: from tissue; host or cells: mouse retina (in vivo, cryosections)
Excerpt: Cryosections of the eye were subjected to fixation and subsequently stained with anti-vimentin antibody (V9) to mark Muller glial filaments.

[6] = target: T3, vimentin associated with mitochondria (Mesocricetus auratus, UniProt P02544); assay: Co-staining with MitoTracker dye in live BHK-21 cells; assay type: cell-based, hamster; settings: 250 nM, 5 mins, serum-free medium
T3 construct: endogenous in cells; host or cells: BHK-21
Description: BHK-21 cells were plated overnight and prior to staining placed in serum-free medium. […] Cells were washed and directly imaged live at dual wavelengths.

[7] = system: human vimentin-cherry hybrid; assay: Time-lapse imaging of BHK-21 cells expressing polymerized mCherry-vimentin; assay type: cell-based, hamster; settings: 250 nM, 5 minutes, serum-free medium, BHK-21 cells with mCherry-vimentin, replated 18 h
Description: Transfection of human vimentin-cherry hybrid plasmid into fibroblasts and examination of polymerized vimentin structures under live cell imaging experiments identify numerous vimentin filaments that show some common, and yet, other distinct staining from the WFA-Verde-labeled structures. BHK-21 cells were transiently transfected with pmCherry-Vimentin-N-18 plasmid (Adgene, MA) using lipofectamine. Cells were cultured to establish the expression of plasmid and then trypsinzed and replated in glass culture plates for 18 h. […] Images at the starting point (T1), mid-point (T2) and at end of 3 minutes (T3).

[8] = target: T4, soluble vimentin species bound to motile mitochondrial species (Mesocricetus auratus, UniProt P02544); assay: Motility quantification of WFA-Verde-labeled particles in BHK-21 cells (FIJI/Image J); assay type: cell-based, hamster; settings: 250 nM, images at 5 sec intervals
T4 construct: BHK-21 cells were plated in glass bottom culture plates for 18 h to promote spreading; endogenous in cells; host or cells: BHK-21
T4 sequence (P02544 2-465 limits assumed): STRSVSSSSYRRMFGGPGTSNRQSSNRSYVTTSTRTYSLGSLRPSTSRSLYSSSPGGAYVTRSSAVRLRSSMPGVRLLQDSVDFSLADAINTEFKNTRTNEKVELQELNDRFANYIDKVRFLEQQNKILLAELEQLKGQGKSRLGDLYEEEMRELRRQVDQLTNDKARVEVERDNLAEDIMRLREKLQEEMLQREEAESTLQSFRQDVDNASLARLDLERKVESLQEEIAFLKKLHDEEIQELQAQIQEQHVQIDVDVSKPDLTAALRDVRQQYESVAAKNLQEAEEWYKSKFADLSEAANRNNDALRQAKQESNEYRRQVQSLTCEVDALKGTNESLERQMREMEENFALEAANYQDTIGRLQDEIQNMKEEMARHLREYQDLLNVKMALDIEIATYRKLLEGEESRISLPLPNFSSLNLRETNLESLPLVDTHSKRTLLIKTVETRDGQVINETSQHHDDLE

Sequence of vimentin in corneal myofibroblasts (P20152 2-466 limits assumed): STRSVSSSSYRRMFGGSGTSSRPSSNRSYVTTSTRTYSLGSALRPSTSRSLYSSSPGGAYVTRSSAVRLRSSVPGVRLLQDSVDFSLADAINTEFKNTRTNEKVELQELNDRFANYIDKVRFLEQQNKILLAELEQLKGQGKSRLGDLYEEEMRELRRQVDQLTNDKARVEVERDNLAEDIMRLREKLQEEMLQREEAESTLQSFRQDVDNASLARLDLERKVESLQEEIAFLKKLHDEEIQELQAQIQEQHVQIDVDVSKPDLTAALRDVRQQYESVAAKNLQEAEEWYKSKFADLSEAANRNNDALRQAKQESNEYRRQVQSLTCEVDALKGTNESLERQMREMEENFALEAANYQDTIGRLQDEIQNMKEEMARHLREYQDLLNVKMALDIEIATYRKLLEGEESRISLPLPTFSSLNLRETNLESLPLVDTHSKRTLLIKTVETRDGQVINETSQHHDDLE
Sequence of human vimentin-cherry hybrid (P08670 2-466 limits assumed): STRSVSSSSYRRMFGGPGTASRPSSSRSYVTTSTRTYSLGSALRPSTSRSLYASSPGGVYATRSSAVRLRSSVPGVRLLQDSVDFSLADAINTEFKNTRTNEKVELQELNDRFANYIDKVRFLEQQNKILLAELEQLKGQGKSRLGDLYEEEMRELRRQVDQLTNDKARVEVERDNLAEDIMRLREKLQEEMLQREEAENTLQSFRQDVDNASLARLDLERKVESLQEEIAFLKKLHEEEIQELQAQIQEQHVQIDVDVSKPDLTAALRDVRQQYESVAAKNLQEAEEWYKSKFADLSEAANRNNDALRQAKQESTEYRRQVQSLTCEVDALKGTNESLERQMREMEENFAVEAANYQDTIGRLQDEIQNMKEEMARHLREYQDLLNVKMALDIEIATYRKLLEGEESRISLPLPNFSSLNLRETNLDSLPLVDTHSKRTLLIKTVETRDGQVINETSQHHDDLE
Sequence of mCherry-vimentin (soluble vimentin) (P08670 2-466 limits assumed): as above
T1 sequence (P02544 2-465 limits assumed): as the sequence (P02544 2-465 limits assumed) above
T3 sequence (P02544 2-465 limits assumed): as above
T2 sequence (P20152 2-466 limits assumed): as the sequence (P20152 2-466 limits assumed) above

Compound	effect on movement of filaments ([1]; time-lapse every 5 seconds)	labeling of Muller glia at laser lesion (vimentin and GFAP)	labeling of vimentin structures in cell cytoplasm ([2]; 3.5 μM, 1 h, rabbit corneal fibroblast cells)	co-localization of probe with p-Ser38Vimentin ([2]; 3.5 μM, 1 h, rabbit corneal fibroblast cells, fixed, anti-pSer38Vimentin antibody)	effect on cytoskeleton ([2]; short exposure to higher dose (3.5 μM, 1 h), well spread cells)	co-localization with Vim-Cherry [3]	speed of WFA-Verde labeled dot-like structure (soluble vimentin)	overlap between vimentin antibody staining and probe binding ([4]; alkali injured corneas, majority of labeled cells)	probe staining of corneas from injured eyes ([4]; alkali injured mice, day 14, intraperitoneal, sacrificed after 1 h)	metabolic conversion in vivo ([4]; mouse, in vivo, ip)	time to reach the target organ after systemic delivery ([4]; mouse, in vivo, ip)	probe staining of non-injured corneas ([4]; non-injured mice, intraperitoneal, sacrificed after 1 h, corneal stroma)	incorporation of probe into vimentin in non-gliotic retina [5]	overlap of probe-stained vimentin structures with MitoTracker dye [6]	staining of vimentin structures at low dose [7]	overlap of WFA-Verde and MitoTracker staining under nocodazole [1]	rate of movement of majority of motile WFA-Verde-labeled particles [8]
COC(=O)Nc1nc2ccc(C(=O)c3cccs3)cc2[nH]1 [Nocodazole, nocodazole, reference compound]	causes filaments to be arrested in movements																
CC1=C(COC(=O)CNC(=O)CCCCCNC(=O)COc2ccc(C3=[N+]4C(=Cc5ccc(-c6cccs6)n5[B-]4(F)F)C=C3)cc2)C(=O)OC(C(C)C2CCC3C4CC5OC56C(O)C=CC(=O)C6(C)C4CCC23C)C1 (stereo not drawn) [WFA-Rosa, Withaferin A-BODIPY-TR-X]		showed a similar pattern illuminating Muller glia															
Withaferin A-BODIPY-FL [WFA-Verde]		labeled the Muller glia extensively	does label both soluble and vimentin structures throughout the cell cytoplasm	extensive co-localization	did not dramatically alter the cytoskeleton	shows co-localization with Vim-Cherry	~0.5 μm/sec	extensive overlap	abundance of WFA-Verde binding to corneal myofibroblasts	likely also not metabolically converted	≤ 1 h	very low level of background staining	minimal incorporation	extensive overlap	does not stain to all vimentin structures	extensive overlap	~0.01 micrometer/second
